Results reported in ChEMBL document CHEMBL5724806, “Unraveling interindividual differences and functional consequences of gut microbial metabolism of immunosuppressants” (2024).

Key:
Assay type in all cases: ADME
[1] = (§1) The drug is tested on Bifidobacterium adolescentis strain: DSM20083 for biotransformation under anaerobic condition. The drug concentrations were measured over 6 timepoints collected between 0 and 12 hours of incubation by liquid-chromatography-coupled mass spectrometry (LC–MS); parameters: dose 5 uM, timepoint 0, 1.5, 3, 6, 9, 12 hours; settings: 5 µM
[2] = The drug is tested on Capnocytophaga ochracea strain: DSM7271 for biotransformation under anaerobic condition. The drug concentrations were measured over 6 timepoints collected between 0 and 12 hours of incubation by liquid-chromatography-coupled mass spectrometry (LC–MS); parameters: dose 5 uM, timepoint 0, 1.5, 3, 6, 9, 12 hours; settings: 5 µM
[3] = The drug is tested on Faecalibacterium prausnitzii strain: DSM17677 for biotransformation under anaerobic condition. The drug concentrations were measured over 6 timepoints collected between 0 and 12 hours of incubation by liquid-chromatography-coupled mass spectrometry (LC–MS); parameters: dose 5 uM, timepoint 0, 1.5, 3, 6, 9, 12 hours; settings: faecalibacterium duncaniae, 5 µM
[4] = The drug is tested on Gemella morbillorum strain: DSM20572 for biotransformation under anaerobic condition. The drug concentrations were measured over 6 timepoints collected between 0 and 12 hours of incubation by liquid-chromatography-coupled mass spectrometry (LC–MS); parameters: dose 5 uM, timepoint 0, 1.5, 3, 6, 9, 12 hours; settings: 5 µM
[5] = The drug is tested on Lactobacillus gasseri strain: DSM20243 for biotransformation under anaerobic condition. The drug concentrations were measured over 6 timepoints collected between 0 and 12 hours of incubation by liquid-chromatography-coupled mass spectrometry (LC–MS); parameters: dose 5 uM, timepoint 0, 1.5, 3, 6, 9, 12 hours; settings: 5 µM
[6] = The drug is tested on Lactobacillus paracasei strain: ATCC27092 for biotransformation under anaerobic condition. The drug concentrations were measured over 6 timepoints collected between 0 and 12 hours of incubation by liquid-chromatography-coupled mass spectrometry (LC–MS); parameters: dose 5 uM, timepoint 0, 1.5, 3, 6, 9, 12 hours; settings: lacticaseibacillus paracasei, 5 µM
[7] = The drug is tested on Lactobacillus reuteri strain: DSM20016 for biotransformation under anaerobic condition. The drug concentrations were measured over 6 timepoints collected between 0 and 12 hours of incubation by liquid-chromatography-coupled mass spectrometry (LC–MS); parameters: dose 5 uM, timepoint 0, 1.5, 3, 6, 9, 12 hours; settings: limosilactobacillus reuteri, 5 µM
[8] = The drug is tested on Streptococcus salivarius strain: DSM20560 for biotransformation under anaerobic condition. The drug concentrations were measured over 6 timepoints collected between 0 and 12 hours of incubation by liquid-chromatography-coupled mass spectrometry (LC–MS); parameters: dose 5 uM, timepoint 0, 1.5, 3, 6, 9, 12 hours; settings: 5 µM
[9] = The drug is tested on Streptococcus sanguinis strain: DSM20567 for biotransformation under anaerobic condition. The drug concentrations were measured over 6 timepoints collected between 0 and 12 hours of incubation by liquid-chromatography-coupled mass spectrometry (LC–MS); parameters: dose 5 uM, timepoint 0, 1.5, 3, 6, 9, 12 hours; settings: 5 µM
[10] = (§2) The drug is tested on Actinomyces graevenitzii strain: DSM15540 for biotransformation under microaerobic condition. The drug concentrations were measured over 6 timepoints collected between 0 and 12 hours of incubation by liquid-chromatography-coupled mass spectrometry (LC–MS); parameters: dose 5 uM, timepoint 0, 1.5, 3, 6, 9, 12 hours; settings: 5 µM
[11] = The drug is tested on Actinomyces naeslundi strain: DSM43013 for biotransformation under microaerobic condition. The drug concentrations were measured over 6 timepoints collected between 0 and 12 hours of incubation by liquid-chromatography-coupled mass spectrometry (LC–MS); parameters: dose 5 uM, timepoint 0, 1.5, 3, 6, 9, 12 hours; settings: actinomyces naeslundii, 5 µM
[12] = The drug is tested on Lactobacillus paracasei strain: ATCC27092 for biotransformation under microaerobic condition. The drug concentrations were measured over 6 timepoints collected between 0 and 12 hours of incubation by liquid-chromatography-coupled mass spectrometry (LC–MS); parameters: dose 5 uM, timepoint 0, 1.5, 3, 6, 9, 12 hours; settings: lacticaseibacillus paracasei, 5 µM
[13] = The drug is tested on Lactobacillus reuteri strain: DSM20016 for biotransformation under microaerobic condition. The drug concentrations were measured over 6 timepoints collected between 0 and 12 hours of incubation by liquid-chromatography-coupled mass spectrometry (LC–MS); parameters: dose 5 uM, timepoint 0, 1.5, 3, 6, 9, 12 hours; settings: limosilactobacillus reuteri, 5 µM
[14] = The drug is tested on Streptococcus anginosus strain: DSM20563 for biotransformation under microaerobic condition. The drug concentrations were measured over 6 timepoints collected between 0 and 12 hours of incubation by liquid-chromatography-coupled mass spectrometry (LC–MS); parameters: dose 5 uM, timepoint 0, 1.5, 3, 6, 9, 12 hours; settings: 5 µM
[15] = The drug is tested on Streptococcus mitis strain: DSM12643 for biotransformation under microaerobic condition. The drug concentrations were measured over 6 timepoints collected between 0 and 12 hours of incubation by liquid-chromatography-coupled mass spectrometry (LC–MS); parameters: dose 5 uM, timepoint 0, 1.5, 3, 6, 9, 12 hours; settings: 5 µM
[16] = The drug is tested on Escherichia coli strain: DSM27469 for biotransformation under microaerobic condition. The drug concentrations were measured over 6 timepoints collected between 0 and 12 hours of incubation by liquid-chromatography-coupled mass spectrometry (LC–MS); parameters: dose 5 uM, timepoint 0, 1.5, 3, 6, 9, 12 hours; settings: 5 µM
[17] = as §1, with “the gut metagenome community of A-01 with ENA study accession number: PRJEB31790” for “Bifidobacterium adolescentis strain: DSM20083”, “7” for “6”; parameters: dose 5 uM, timepoint 0, 0.75, 1.5, 3, 6, 9, 12 hours; settings: 5 µM
[18] = as §1, with “the gut metagenome community of A-02 with ENA study accession number: PRJEB31790” for “Bifidobacterium adolescentis strain: DSM20083”, “7” for “6”; parameters: dose 5 uM, timepoint 0, 0.75, 1.5, 3, 6, 9, 12 hours; settings: 5 µM
[19] = as §1, with “the gut metagenome community of A-05 with ENA study accession number: PRJEB31790” for “Bifidobacterium adolescentis strain: DSM20083”, “7” for “6”; parameters: dose 5 uM, timepoint 0, 0.75, 1.5, 3, 6, 9, 12 hours; settings: 5 µM
[20] = as §1, with “the gut metagenome community of A-07 with ENA study accession number: PRJEB31790” for “Bifidobacterium adolescentis strain: DSM20083”, “7” for “6”; parameters: dose 5 uM, timepoint 0, 0.75, 1.5, 3, 6, 9, 12 hours; settings: 5 µM
[21] = as §1, with “the gut metagenome community of P-01 with ENA study accession number: PRJEB31790” for “Bifidobacterium adolescentis strain: DSM20083”, “7” for “6”; parameters: dose 5 uM, timepoint 0, 0.75, 1.5, 3, 6, 9, 12 hours; settings: 5 µM
[22] = as §1, with “the gut metagenome community of P-02 with ENA study accession number: PRJEB31790” for “Bifidobacterium adolescentis strain: DSM20083”, “7” for “6”; parameters: dose 5 uM, timepoint 0, 0.75, 1.5, 3, 6, 9, 12 hours; settings: 5 µM
[23] = as §1, with “the gut metagenome community of P-04 with ENA study accession number: PRJEB31790” for “Bifidobacterium adolescentis strain: DSM20083”, “7” for “6”; parameters: dose 5 uM, timepoint 0, 0.75, 1.5, 3, 6, 9, 12 hours; settings: 5 µM
[24] = as §1, with “the gut metagenome community of T-02 with ENA study accession number: PRJEB31790” for “Bifidobacterium adolescentis strain: DSM20083”, “7” for “6”; parameters: dose 5 uM, timepoint 0, 0.75, 1.5, 3, 6, 9, 12 hours; settings: 5 µM
[25] = as §1, with “the gut metagenome community of T-03 with ENA study accession number: PRJEB31790” for “Bifidobacterium adolescentis strain: DSM20083”, “7” for “6”; parameters: dose 5 uM, timepoint 0, 0.75, 1.5, 3, 6, 9, 12 hours; settings: 5 µM
[26] = as §2, with “the gut metagenome community of A-01 with ENA study accession number: PRJEB31790” for “Actinomyces graevenitzii strain: DSM15540”, “7” for “6”; parameters: dose 5 uM, timepoint 0, 0.75, 1.5, 3, 6, 9, 12 hours; settings: 5 µM
[27] = as §2, with “the gut metagenome community of A-05 with ENA study accession number: PRJEB31790” for “Actinomyces graevenitzii strain: DSM15540”, “7” for “6”; parameters: dose 5 uM, timepoint 0, 0.75, 1.5, 3, 6, 9, 12 hours; settings: 5 µM
[28] = as §2, with “the gut metagenome community of A-06 with ENA study accession number: PRJEB31790” for “Actinomyces graevenitzii strain: DSM15540”, “7” for “6”; parameters: dose 5 uM, timepoint 0, 0.75, 1.5, 3, 6, 9, 12 hours; settings: 5 µM
[29] = as §2, with “the gut metagenome community of A-08 with ENA study accession number: PRJEB31790” for “Actinomyces graevenitzii strain: DSM15540”, “7” for “6”; parameters: dose 5 uM, timepoint 0, 0.75, 1.5, 3, 6, 9, 12 hours; settings: 5 µM
[30] = as §2, with “the gut metagenome community of T-02 with ENA study accession number: PRJEB31790” for “Actinomyces graevenitzii strain: DSM15540”, “7” for “6”; parameters: dose 5 uM, timepoint 0, 0.75, 1.5, 3, 6, 9, 12 hours; settings: 5 µM
[31] = as §2, with “the gut metagenome community of T-05 with ENA study accession number: PRJEB31790” for “Actinomyces graevenitzii strain: DSM15540”, “7” for “6”; parameters: dose 5 uM, timepoint 0, 0.75, 1.5, 3, 6, 9, 12 hours; settings: 5 µM

| SMILES | Bacterial Biotransformation [1] | Bacterial Biotransformation [2] | Bacterial Biotransformation [3] | Bacterial Biotransformation [4] | Bacterial Biotransformation [5] | Bacterial Biotransformation [6] | Bacterial Biotransformation [7] | Bacterial Biotransformation [8] | Bacterial Biotransformation [9] | Bacterial Biotransformation [10] | Bacterial Biotransformation [11] | Bacterial Biotransformation [12] | Bacterial Biotransformation [13] | Bacterial Biotransformation [14] | Bacterial Biotransformation [15] | Bacterial Biotransformation [16] | Bacterial Biotransformation [17] | Bacterial Biotransformation [18] | Bacterial Biotransformation [19] | Bacterial Biotransformation [20] | also measured |
| --- | --- | --- | --- | --- | --- | --- | --- | --- | --- | --- | --- | --- | --- | --- | --- | --- | --- | --- | --- | --- | --- |
| C[C@@H]1C[C@H]2[C@@H]3CCC4=CC(=O)C=C[C@]4(C)[C@@]3(F)[C@@H](O)C[C@]2(C)[C@@]1(O)C(=O)CO [DEXAMETHASONE] | Compound NOT metabolized | Compound NOT metabolized | Compound NOT metabolized | Compound NOT metabolized | Compound NOT metabolized | Compound NOT metabolized | Compound NOT metabolized | Compound NOT metabolized | Compound NOT metabolized | Compound NOT metabolized | Compound NOT metabolized | Compound NOT metabolized | Compound NOT metabolized | Compound NOT metabolized | Compound NOT metabolized | Compound NOT metabolized | Compound NOT metabolized | Compound metabolized | Compound NOT metabolized | Compound metabolized | Bacterial Biotransformation [21]: Compound NOT metabolized; Bacterial Biotransformation [22]: Compound metabolized; Bacterial Biotransformation [23]: Compound NOT metabolized; Bacterial Biotransformation [24]: Compound metabolized; Bacterial Biotransformation [25]: Compound NOT metabolized; Bacterial Biotransformation [26]: Compound NOT metabolized; Bacterial Biotransformation [27]: Compound NOT metabolized; Bacterial Biotransformation [28]: Compound metabolized; Bacterial Biotransformation [29]: Compound metabolized; Bacterial Biotransformation [30]: Compound metabolized; Bacterial Biotransformation [31]: Compound NOT metabolized |
| C[C@]12C=CC(=O)C=C1CC[C@@H]1[C@@H]2[C@@H](O)C[C@@]2(C)[C@H]1CC[C@]2(O)C(=O)CO [PREDNISOLONE] | Compound NOT metabolized | Compound NOT metabolized | Compound NOT metabolized | Compound NOT metabolized | Compound NOT metabolized | Compound NOT metabolized | Compound NOT metabolized | Compound NOT metabolized | Compound NOT metabolized | Compound NOT metabolized | Compound NOT metabolized | Compound NOT metabolized | Compound NOT metabolized | Compound NOT metabolized | Compound NOT metabolized | Compound NOT metabolized | Compound metabolized | Compound metabolized | Compound metabolized | Compound metabolized | Bacterial Biotransformation [21]: Compound metabolized; Bacterial Biotransformation [22]: Compound metabolized; Bacterial Biotransformation [23]: Compound metabolized; Bacterial Biotransformation [24]: Compound metabolized; Bacterial Biotransformation [25]: Compound NOT metabolized; Bacterial Biotransformation [26]: Compound metabolized; Bacterial Biotransformation [27]: Compound metabolized; Bacterial Biotransformation [28]: Compound metabolized; Bacterial Biotransformation [29]: Compound metabolized; Bacterial Biotransformation [30]: Compound metabolized; Bacterial Biotransformation [31]: Compound NOT metabolized |
| CO[C@H]1C[C@@H]2CC[C@@H](C)[C@@](O)(O2)C(=O)C(=O)N2CCCC[C@H]2C(=O)O[C@H]([C@H](C)C[C@@H]2CC[C@@H](OCCO)[C@H](OC)C2)CC(=O)[C@H](C)/C=C(\C)[C@@H](O)[C@@H](OC)C(=O)[C@H](C)C[C@H](C)/C=C/C=C/C=C/1C [EVEROLIMUS] | Compound NOT metabolized | Compound NOT metabolized | Compound NOT metabolized | Compound NOT metabolized | Compound NOT metabolized | Compound NOT metabolized | Compound NOT metabolized | Compound NOT metabolized | Compound NOT metabolized | Compound NOT metabolized | Compound NOT metabolized | Compound NOT metabolized | Compound NOT metabolized | Compound NOT metabolized | Compound NOT metabolized | Compound NOT metabolized | Compound metabolized | Compound metabolized | Compound metabolized | Compound metabolized | Bacterial Biotransformation [21]: Compound NOT metabolized; Bacterial Biotransformation [22]: Compound NOT metabolized; Bacterial Biotransformation [23]: Compound NOT metabolized; Bacterial Biotransformation [24]: Compound metabolized; Bacterial Biotransformation [25]: Compound NOT metabolized; Bacterial Biotransformation [26]: Compound metabolized; Bacterial Biotransformation [27]: Compound metabolized; Bacterial Biotransformation [28]: Compound metabolized; Bacterial Biotransformation [29]: Compound metabolized; Bacterial Biotransformation [30]: Compound metabolized; Bacterial Biotransformation [31]: Compound NOT metabolized |
